# In US20260124213A1, “STAPHYLOCOCCUS AUREUS PBP4 INHIBITORS AND METHOD OF USE” (UNIVERSITY OF ROCHESTER, priority 2022, published 2026):
# Experiments:
# [1] = test system: recombinant PBP4; test: BOCILLIN FL labeling of PBP4, gel electrophoresis and fluorescence detection; type: binding; conditions: kanamycin 2000 μM or 5000 μM
# Method: PBP4 BOCILLIN™ FL Binding Competition Assays. The ability of putative PBP4 inhibitors to impact the active site of recombinant PBP4 was assessed using two previously established BOCILLIN™-FL Penicillin (Penicillin V conjugated to BODIPY fluorescent dye) binding assays. First, fluorescence polarization assays were performed as previously described. Briefly, the indicated amount of the putative PBP4 inhibitor or control antibiotic was incubated with 1 μM recombinant B. subtilis PBP4 or S. aureus PBP2a in potassium phosphate buffer (40 mM K2HPO4 and 10 mM KH2PO4) for 1 hour in black 96-well microtiter plates (Corning Life Sciences®, Corning, NY). […] BOCILLIN™ FL fluorescence polarization was measured at (495nm excitation and 545nm emission) in a SpectraMax® M5 multimode plate reader (Molecular Devices®, San Jose, CA). […] Second, gel electrophoresis and fluorescence detection were used to measure BOCILLIN™ FL labeling of PBP4 treated with the known PBP4 inhibitor cefoxitin (positive control), kanamycin (negative control) or 9314848 (test compound). […] BOCILLIN™ FL labeled PBP4 was imaged at λ=365 nm using a BioRad© Gel Doc EZ™ Imaging system and the gel was then subsequently stained with Bio-safe Coomassie Brilliant Blue stain (BioRad©, Hercules, CA, USA) to measure the amount of protein present in each reaction condition and analyzed using NIH-ImageJ software. […]
# [2] = test system: MRSA strain AH-1263; test: Broth microdilution antibiotic potentiation; type: cell-based, Staphylococcus aureus; conditions: AH-1263; for Ampicillin MIC / Ampicillin MIC fold reduction / Cefotaxime MIC / Oxacillin MIC: Ex. 3 compound at 60 μM (18 and 19 at 30 μM)
# Method: (§1) Broth Microdilution Method for Antibiotic Potentiation with MRSA Strains. Bacteria were cultured for 6 hours in CAMHB and sub-cultured to 5×10^5 CFU/mL in CAMHB. Subcultures were aliquoted (4 mL) into culture tubes and then inoculated with compound from 10 mM or 100 mM stock in DMSO to the desired concentration. […]. Bacteria treated with antibiotic alone served as the control. Samples from the secondary culture tubes were then aliquoted (200 μL) into the first row of wells of a 96-well microtiter plate. Rows 2-11 were filled (100 μL) with the remaining 4 mL of bacterial subculture containing the adjuvant. Row 12 was filled (100 μL) with uninoculated media. From row 1, 100 μL was transferred to row two and mixed 5-8 times before being transferred to row 3. This procedure was used to serial dilute the rest of the rows through 10. The microtiter plate was then covered in Press 'n Seal and incubated at 37° C.
# [3] = test system: MRSA strain AH-2204; test: Broth microdilution antibiotic potentiation; type: cell-based, Staphylococcus aureus; conditions: AH-2204
# Method: as §1
# [4] = test system: MRSA strain ATCC BAA-1556; test: Broth microdilution antibiotic potentiation; type: cell-based, Staphylococcus aureus; conditions: ATCC BAA-1556
# Method: as §1
# [5] = test system: HEPG2 cells; test: MTT cell viability / mammalian cytotoxicity; type: cell-based, human; conditions: compound at 100 μM; HEPG2 cells approximately 2.5 × 10^5 cells/mL
# Method: Eukaryotic Toxicity Testing. Two rounds of eukaryotic toxicity testing were performed. Initially hits of interest were evaluated for antifungal activity in high throughput manner. To do so, 10^5 CFU of Saccharomyces cerevisiae YSB1001 cells (10 μL) were inoculated into individual wells of a microtiter plate containing yeast peptone dextrose media (88 μL) and 50 μM of each hit (2 μL). […] More extensive mammalian cytotoxicity testing was performed on the indicated highest priority hits of interest following International Organization for Standardization guidelines. Briefly, human liver epithelial cells (HEPG2) were cultured in Dulbecco's modified Eagle medium (DMEM; Fisher Scientific®) supplemented with 10% heat inactivated fetal bovine serum (FBS; Corning Life Sciences, Corning, NY) and 1% penicillin and streptomycin. Cells were incubated at 37° C. with 5% CO2 in Nunc™ tissue culture flasks (Roskilde, Denmark) until reaching 70% confluency. Cells were removed with 0.25% trypsin (Fisher Scientific®), resuspended in fresh medium, and used to seed approximately 2.5×10^5 mL^−1 cells into individual wells of a 96 well tissue culture microplate (Nunc™) containing 200 μL of fresh medium, and incubated for 24 hours. […] Mixtures were incubated for 20-24 h at 37° C. with 5% CO2, the media was removed and replaced with 100 μL fresh media and 10 μL of 12 mM (3-(4,5-dimethylthiazol-2-yl)-2,5-diphenyltetrazolium bromide (MTT) reagent (Cyquant™ Cell Viability kit; Invitrogen™, Carlsbad, CA) was added to each well. Cells were incubated at 37° C. with 5% CO2 for 2-4 hour, 85 μL of media was removed and the remainder was mixed with 50 μL DMSO and incubated for an additional 10 minutes at 37° C. in the dark. Using a SpectraMax® M5 microplate reader, cell viability was recorded as absorbance at OD540 nm. All compounds were tested in triplicate and cell viability was expressed as a percent viability of treated cells in comparison to mock treated cells. […]
# [6] = target: recombinant B. subtilis PBP4 (Bacillus subtilis, UniProt P40750); test: BOCILLIN FL fluorescence polarization binding competition; conditions: compound 50 μM; Ex. 3 series
# recombinant B. subtilis PBP4, sequence (P40750 22-624): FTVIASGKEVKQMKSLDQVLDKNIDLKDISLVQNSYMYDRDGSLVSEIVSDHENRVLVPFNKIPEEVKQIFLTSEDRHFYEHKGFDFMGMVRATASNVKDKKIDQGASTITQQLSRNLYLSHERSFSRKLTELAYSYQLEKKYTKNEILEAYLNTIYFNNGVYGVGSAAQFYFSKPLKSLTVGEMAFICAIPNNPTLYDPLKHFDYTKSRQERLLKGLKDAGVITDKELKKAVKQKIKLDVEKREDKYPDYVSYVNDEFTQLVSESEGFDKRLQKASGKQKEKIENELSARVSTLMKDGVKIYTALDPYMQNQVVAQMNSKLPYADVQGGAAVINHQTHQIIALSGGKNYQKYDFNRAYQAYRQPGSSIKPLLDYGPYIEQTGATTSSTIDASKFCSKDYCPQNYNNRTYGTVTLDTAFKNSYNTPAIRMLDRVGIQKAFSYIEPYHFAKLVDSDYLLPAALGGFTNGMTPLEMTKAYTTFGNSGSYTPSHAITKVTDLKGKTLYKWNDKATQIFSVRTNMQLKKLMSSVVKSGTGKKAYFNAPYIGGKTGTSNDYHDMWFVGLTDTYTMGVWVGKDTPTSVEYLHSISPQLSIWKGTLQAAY
# Method: PBP4 BOCILLIN™ FL Binding Competition Assays. The ability of putative PBP4 inhibitors to impact the active site of recombinant PBP4 was assessed using two previously established BOCILLIN™-FL Penicillin (Penicillin V conjugated to BODIPY fluorescent dye) binding assays. First, fluorescence polarization assays were performed as previously described. Briefly, the indicated amount of the putative PBP4 inhibitor or control antibiotic was incubated with 1 μM recombinant B. subtilis PBP4 or S. aureus PBP2a in potassium phosphate buffer (40 mM K2HPO4 and 10 mM KH2PO4) for 1 hour in black 96-well microtiter plates (Corning Life Sciences®, Corning, NY). Following incubation, 1 μM (final concentration) BOCILLIN™ FL penicillin was added, and the mixture was incubated for 30 minutes. BOCILLIN™ FL fluorescence polarization was measured at (495nm excitation and 545nm emission) in a SpectraMax® M5 multimode plate reader (Molecular Devices®, San Jose, CA). All assays were repeated at least 8 times, averaged, and values falling outside of 2 standard deviations were considered outliers. Resulting data was plotted as percentage BOCILLIN™ FL binding inhibition=(T/U)×100; T=FL polarization of ((PBP4+BOCILLIN™ FL)−(PBP4+BOCILLIN™ FL+inhibitor compound)), U=FL polarization of ((PBP4+BOCILLIN™ FL)−(BOCILLIN™ FL)). Second, gel electrophoresis and fluorescence detection were used to measure BOCILLIN™ FL labeling of PBP4 treated with the known PBP4 inhibitor cefoxitin (positive control), kanamycin (negative control) or 9314848 (test compound). Briefly, 1 μM of recombinant PBP4 was mixed with 0, 50, 500, 2000, or 5000 μM 9314848 or control antibiotic in 50 mM phosphate buffer (pH 7.4) and incubated at 37° C. for 30 minutes. Next 40 μM of BOCILLIN™ FL was added to the reaction mixture and incubated for an additional 30 minutes at 37° C. Reactions were stopped by adding 5×SDS-PAGE gel loading dye, heated at 100° C. for 3 minutes and separated by electrophoresis in 12% SDS-PAGE (2 h, 120 Volts). BOCILLIN™ FL labeled PBP4 was imaged at λ=365 nm using a BioRad© Gel Doc EZ™ Imaging system and the gel was then subsequently stained with Bio-safe Coomassie Brilliant Blue stain (BioRad©, Hercules, CA, USA) to measure the amount of protein present in each reaction condition and analyzed using NIH-ImageJ software. The percent BOCILLIN™ FL binding was calculated by first normalizing the protein present in each reaction condition to that of untreated control and subsequently applying each reaction's protein normalization factor to each reaction's fluorescent signal. The percentage BOCILLIN™ FL binding inhibition was then calculated as the normalized band intensity of antibiotic/compound treated sample as compared to control sample (PBP4+BOCILLIN™ FL in the absence of compound).
# To more directly evaluate whether 9314848 is likely to affect PBP4 function, the compound's ability to bind recombinant PBP4 was measured using BOCILLIN™ FL fluorescence polarization displacement assays. The premise for the assay is that the fluorescence polarization of the fluorescently labeled β-lactam, penicillin V (BOCILLIN™ FL), will increase upon binding to its cognate target (i.e., PBP4). Further, compounds that bind PBP4 and inhibit its function would impede BOCILLIN™ FL binding thereby allowing assessment of the protein binding affinity of 9314848 using a simple fluorescence reduction assay.
# [7] = Staphylococcus aureus, MRSA, read-out: Cefoxitin MIC, no compound (—)
# [8] = Ex. 3 compound at 60 μM (18 and 19 at 30 μM)
"MIC [2, 7]","MIC [3, 7]","MIC ([4]; Staphylococcus aureus, read-out: Cefoxitin MIC, no compound (—))",SMILES,Effect of preincubation on BOCILLIN FL labeling of PBP4 (gel) [1],Toxicity with HEPG2 Cells (cell viability) [5],"Percentage Bocillin Displacement (%), PBP4 binding [6]",Ampicillin MIC [2],Ampicillin MIC fold reduction [2],Cefotaxime MIC [2],Oxacillin MIC [2],"Ampicillin MIC [3, 8]","Cefotaxime MIC [3, 8]","Oxacillin MIC [3, 8]","Oxacillin MIC fold reduction [3, 8]","Ampicillin MIC [4, 8]","Cefotaxime MIC [4, 8]","Cefotaxime MIC fold reduction [4, 8]","Oxacillin MIC [4, 8]","Oxacillin MIC fold reduction [4, 8]","Cefotaxime MIC fold reduction [3, 8]"
4 µg/mL,2 µg/mL,8 µg/mL,"CO[C@@]1(NC(=O)Cc2cccs2)C(=O)N2C(C(=O)O)=C(COC(N)=O)CS[C@@H]21 [Cefoxitin, cefoxitin]",reduced the protein's ability to bind the fluorescent substrate in a dose-dependent manner,–,–,–,–,–,–,–,–,–,–,–,–,–,–,–,–
–,–,–,"O=C(Nc1ccc2[nH]c(-c3cc(Cl)cc(Cl)c3)nc2c1)c1ccco1 [Compound 33, N-(2-(3,5-Dichlorophenyl)-1H-benzo[d]imidazol-5-yl)furan-2-carboxamide]",–,151 ± 11.3%,56.5 ± 35.6%,1 µg/mL,(16),32 µg/mL,16 µg/mL,2 µg/mL,16 µg/mL,4 µg/mL,(8),16 µg/mL,16 µg/mL,(2),16 µg/mL,(2),–
–,–,–,"O=C(Nc1ccc2[nH]c(C3CCCCC3)nc2c1)c1ccco1 [Compound 34, N-(2-Cyclohexyl-1H-benzo[d]imidazol-5-yl)furan-2-carboxamide]",–,97 ± 5.8%,60.3 ± 43.8%,2 µg/mL,(8),32 µg/mL,16 µg/mL,2 µg/mL,8 µg/mL,8 µg/mL,(4),16 µg/mL,32 µg/mL,–,32 µg/mL,–,(2)
